Assay results from patent US20240148821A1, “PHARMACEUTICAL USE OF CYCLIC PEPTIDE COMPOUND” (CHUGAI SEIYAKU KABUSHIKI KAISHA, priority 2021, published 2024).
Numbered stars: 1 amine (or outer) side, 2 acyl side, 3 side chain; on linkers, the order of the positions; unused ones are H or OH. Bridge positions count the residues as written; N and C are the ends. Square brackets hold non-standard residues; d marks the D form. Peptide text beside a SMILES is read from it. * marks the point of attachment. hPhe(3-Cl-4-CF3) = N[C@@H](CCc1ccc(C(F)(F)F)c(Cl)c1)C(=O)O; hPhe(3-F,4-CF3) = N[C@@H](CCc1ccc(C(F)(F)F)c(F)c1)C(=O)O; NEtPhe(4-CF3) = CCN[C@@H](Cc1ccc(C(F)(F)F)cc1)C(=O)O; NMePhe(4-Me) = CN[C@@H](Cc1ccc(C)cc1)C(=O)O; NMePhe(2-Cl) = CN[C@@H](Cc1ccccc1Cl)C(=O)O; hPhe(4-Cl) = N[C@@H](CCc1ccc(Cl)cc1)C(=O)O; NMedβ3hAla = C[C@H](CC(=O)[*:2])N(C)[*:1]; NMeAla(cPent) = CN[C@@H](CC1CCCC1)C(=O)O; NMeGly(cPent) = CN[C@H](C(=O)O)C1CCCC1; NMeCha = CN[C@@H](CC1CCCCC1)C(=O)O; NMehLeu = CN[C@@H](CCC(C)C)C(=O)O; X4 = C#CC[C@H](CC(=O)[*:2])N[*:1]; Hyp = O=C(O)[C@@H]1C[C@@H](O)CN1; NEtLeu = CCN[C@@H](CC(C)C)C(=O)O; NMeCba = CN[C@@H](CC1CCC1)C(=O)O; NMeChg = CN[C@H](C(=O)O)C1CCCCC1; NMeI = CC[C@H](C)[C@H](NC)C(=O)O; NMeD = CN[C@@H](CC(=O)O)C(=O)O; CH2CONHtBu = CC(C)(C)NC(=O)C*; NMeL = CN[C@@H](CC(C)C)C(=O)O; NMeV = CN[C@H](C(=O)O)C(C)C; d(β3hA) = C[C@@H](N)CC(=O)O; NMeS = CN[C@@H](CO)C(=O)O; Morpholide = C1CN(*)CCO1; NMeA = CN[C@@H](C)C(=O)O; NMeAib = CNC(C)(C)C(=O)O; Piperidide = C1CCN(*)CC1; Pyrrolidide = C1CCN(*)C1; Ac5c = NC1(C(=O)O)CCCC1; Aze = O=C(O)[C@@H]1CCN1; Cyclopropyl = C1CC1*; Ethyl(2-OH) = OCC*; Sar = CNCC(=O)O; Propyl = CCC*

biological target: protein-protein interaction between Kras and SOS1 (biotin-tagged human Kras loaded with GDP, His-tagged human SOS1) (Homo sapiens (Human), UniProt P01116, G12D); test: Protein-protein interaction inhibition between Kras and SOS1 (KrasG12D-SOS PPI) using AlphaScreen; assay type: biochemical; conditions: AlphaScreen; biotin-tagged human Kras loaded with GDP, His-tagged human SOS1; read-out: KRAS G12D-SOS PPI IC50;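 note: kras produced in E. coli, Ni-coupled donor beads and streptavidin acceptor beads, excitation 680 nm with emission detected at 520–620 nm via singlet oxygen transfer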

| Compound | IC50 [nM] |
| --- | --- |
| CCO[C@@H]1C[C@H]2C(=O)NC3(CCCC3)C(=O)N(C)[C@@H]([C@@H](C)CC)C(=O)N(C)[C@H](C)CC(=O)N(C)[C@@H](CC(C)C)C(=O)N[C@@H]([C@@H](C)CC)C(=O)N[C@@H](C)C(=O)N3CC[C@H]3C(=O)N(CC)[C@@H](Cc3ccc(C(F)(F)F)cc3)C(=O)N(C)CC(=O)N[C@@H](CCc3ccc(C(F)(F)F)c(Cl)c3)C(=O)N2C1 [Compound 673] (cyclo(A[Aze][NEtPhe(4-CF3)][Sar][hPhe(3-Cl-4-CF3)][Hyp](Et)[Ac5c][NMeI][NMedβ3hAla][NMeL]I)) | 11 |
| CC[C@H](C)[C@@H]1NC(=O)[C@H](CC(C)C)N(CC)C(=O)C[C@@H](C(=O)N2CCOCC2)N(C)C(=O)[C@H](C2CCCC2)N(C)C(=O)C2(CCCC2)NC(=O)[C@@H]2CCCN2C(=O)[C@H](CCc2ccc(C(F)(F)F)c(Cl)c2)NC(=O)CN(C)C(=O)[C@H](C2CCCC2)N(C)C(=O)[C@@H]2CCN2C(=O)[C@H](C)NC1=O [Compound 1140] ([NEtLeu]IA[Aze][NMeGly(cPent)][Sar][hPhe(3-Cl-4-CF3)]P[Ac5c][NMeGly(cPent)][NMeD]-Morpholide; lactam N-11) | 2 |
| CC[C@H](C)[C@@H]1NC(=O)[C@H](CC2CCC2)N(C)C(=O)C[C@@H](C)NC(=O)[C@H](C(C)C)N(C)C(=O)C2(CCCC2)NC(=O)[C@@H]2CCCN2C(=O)[C@H](CCc2ccc(C(F)(F)F)c(Cl)c2)NC(=O)CN(C)C(=O)[C@H](CC2CCCCC2)N(C)C(=O)[C@@H]2CCN2C(=O)[C@H](C)N(C)C1=O [Compound 455] (cyclo([Ac5c][NMeV][d(β3hA)][NMeCba]I[NMeA][Aze][NMeCha][Sar][hPhe(3-Cl-4-CF3)]P)) | 59 |
| CC[C@H](C)[C@@H]1NC(=O)[C@H](CC(C)C)N(C)C(=O)C[C@@H](C)NC(=O)[C@H](C(C)C)N(C)C(=O)C2(CCCC2)NC(=O)[C@@H]2CCCN2C(=O)[C@H](CCc2ccc(C(F)(F)F)c(Cl)c2)NC(=O)CN(C)C(=O)[C@H](CC2CCCCC2)N(C)C(=O)[C@@H]2CCN2C(=O)[C@H](COCC(=O)NC(C)(C)C)N(C)C1=O [Compound 70] (cyclo([Ac5c][NMeV][d(β3hA)][NMeL]I[NMeS](CH2CONHtBu)[Aze][NMeCha][Sar][hPhe(3-Cl-4-CF3)]P)) | 160 |
| CC[C@H](C)[C@@H]1NC(=O)[C@H](CC(C)C)N(CC)C(=O)C[C@@H](C)NC(=O)[C@H](C2CCCC2)N(C)C(=O)C2(CCCC2)NC(=O)[C@@H]2CCCN2C(=O)[C@H](CCc2ccc(C(F)(F)F)c(Cl)c2)NC(=O)CN(C)C(=O)[C@H](Cc2ccc(C)cc2)N(C)C(=O)[C@@H]2CCN2C(=O)[C@H](C)N(C)C1=O [Compound 531] (cyclo([Ac5c][NMeGly(cPent)][d(β3hA)][NEtLeu]I[NMeA][Aze][NMePhe(4-Me)][Sar][hPhe(3-Cl-4-CF3)]P)) | 1.6 |
| CC[C@H](C)[C@@H]1NC(=O)[C@H](CC(C)C)N(C)C(=O)C[C@@H](C(=O)N2CCCCC2)N(C)C(=O)[C@H](C2CCCCC2)N(C)C(=O)C2(CCCC2)NC(=O)[C@@H]2C[C@@H](OCCO)CN2C(=O)[C@H](CCc2ccc(C(F)(F)F)c(Cl)c2)NC(=O)CN(C)C(=O)[C@H](CC2CCCCC2)N(C)C(=O)CN(C)C(=O)CN(C)C1=O [Compound 2122, (3S,9S,18S,21S,25S,28S,34S,36R)-3-[2-[3-chloro-4-(trifluoromethyl)phenyl]ethyl]-28-cyclohexyl-9-(cyclohexylmethyl)-36-(2-hydroxyethoxy)-21-isobutyl-7,10,13,16,22,26,29-heptamethyl-18-[(1S)-1-methylpropyl]-25-(piperidine-1-carbonyl)spiro[1,4,7,10,13,16,19,22,26,29,32-undecazabicyclo[32.3.0]heptatriacontane-31,1′-cyclopentane]-2,5,8,11,14,17,20,23,27,30,33-undecone] ([NMeL]I[Sar][Sar][NMeCha][Sar][hPhe(3-Cl-4-CF3)][Hyp](Ethyl(2-OH))[Ac5c][NMeChg][NMeD]-Piperidide; lactam N-11) | 0.46 |
| CCCOC[C@H]1C(=O)N[C@@H]([C@@H](C)CC)C(=O)N(C)[C@@H](C)C(=O)N2CC[C@H]2C(=O)N(C)[C@@H](CC2CCCCC2)C(=O)N(C)CC(=O)N[C@@H](CCc2ccc(C(F)(F)F)c(Cl)c2)C(=O)N2CCC[C@H]2C(=O)NC2(CCCC2)C(=O)N(C)[C@@H](C(C)C)C(=O)N(C)[C@H](C(=O)N2CCCCC2)CC(=O)N1C [Compound 1763] ([NMeS](Propyl)I[NMeA][Aze][NMeCha][Sar][hPhe(3-Cl-4-CF3)]P[Ac5c][NMeV][NMeD]-Piperidide; lactam N-11) | 4.5 |
| C#CC[C@@H]1CC(=O)N(C)[C@@H](CC(C)C)C(=O)N[C@@H]([C@@H](C)CC)C(=O)N(C)[C@@H](C)C(=O)N2CC[C@H]2C(=O)N(C)[C@@H](Cc2ccc(C)cc2)C(=O)N(C)CC(=O)N[C@@H](CCc2ccc(C(F)(F)F)c(Cl)c2)C(=O)N2CCC[C@H]2C(=O)NC2(CCCC2)C(=O)N(C)[C@@H]([C@@H](C)CC)C(=O)N1 [Compound 1967] (cyclo([Ac5c][NMeI][X4][NMeL]I[NMeA][Aze][NMePhe(4-Me)][Sar][hPhe(3-Cl-4-CF3)]P)) | 77 |
| CC[C@H](C)[C@@H]1NC(=O)[C@H](CC(C)C)N(C)C(=O)C[C@@H](C)N(C)C(=O)[C@H](C2CCCC2)N(C)C(=O)C2(CCCC2)NC(=O)[C@@H]2CCCN2C(=O)[C@H](CCc2ccc(C(F)(F)F)c(F)c2)NC(=O)CN(C)C(=O)[C@H](C2CCCC2)N(C)C(=O)[C@@H]2CCN2C(=O)[C@H](C)N(C)C1=O [Compound 386] (cyclo([Ac5c][NMeGly(cPent)][NMedβ3hAla][NMeL]I[NMeA][Aze][NMeGly(cPent)][Sar][hPhe(3-F,4-CF3)]P)) | 10 |
| CC[C@H](C)[C@@H]1NC(=O)[C@H](CC(C)C)N(C)C(=O)C[C@@H](C(=O)N2CCCC2)NC(=O)[C@H](C2CCCC2)N(C)C(=O)C2(CCCC2)NC(=O)[C@@H]2CCCN2C(=O)[C@H](CCc2ccc(C(F)(F)F)c(Cl)c2)NC(=O)CN(C)C(=O)[C@H](CC2CCCCC2)N(C)C(=O)[C@@H]2CCN2C(=O)[C@H](C)N(C)C1=O [Compound 700] ([NMeL]I[NMeA][Aze][NMeCha][Sar][hPhe(3-Cl-4-CF3)]P[Ac5c][NMeGly(cPent)]D-Pyrrolidide; lactam N-11) | 5 |
| CC[C@H](C)[C@@H]1NC(=O)[C@H](CC2CCCC2)N(C)C(=O)C[C@@H](C(=O)N2CCCCC2)N(C)C(=O)[C@H](C(C)C)N(C)C(=O)C2(CCCC2)NC(=O)[C@@H]2CCCN2C(=O)[C@H](CCc2ccc(C(F)(F)F)c(Cl)c2)NC(=O)CN(C)C(=O)[C@H](CC2CCCCC2)N(C)C(=O)[C@@H]2CCN2C(=O)[C@H](C)N(C)C1=O [Compound 37] ([NMeAla(cPent)]I[NMeA][Aze][NMeCha][Sar][hPhe(3-Cl-4-CF3)]P[Ac5c][NMeV][NMeD]-Piperidide; lactam N-11) | 17 |
| CC[C@H](C)[C@@H]1NC(=O)[C@H](CC(C)C)N(C)C(=O)C[C@@H](C(=O)N2CCCCC2)N(C)C(=O)[C@H](C(C)C)N(C)C(=O)C2(CCCC2)NC(=O)[C@@H]2CCCN2C(=O)[C@H](CCc2ccc(C(F)(F)F)c(Cl)c2)NC(=O)CN(C)C(=O)[C@H](CC2CCCCC2)N(C)C(=O)[C@@H]2CCN2C(=O)[C@H](COC2CC2)N(C)C1=O [Compound 676] ([NMeL]I[NMeS](Cyclopropyl)[Aze][NMeCha][Sar][hPhe(3-Cl-4-CF3)]P[Ac5c][NMeV][NMeD]-Piperidide; lactam N-11) | 31 |
| CC[C@H](C)[C@@H]1NC(=O)[C@H](CC(C)C)N(CC)C(=O)C[C@@H](C(=O)N2CCOCC2)N(C)C(=O)[C@H](C2CCCC2)N(C)C(=O)C2(CCCC2)NC(=O)[C@@H]2CCCN2C(=O)[C@H](CCc2ccc(C(F)(F)F)c(Cl)c2)NC(=O)CN(C)C(=O)[C@H](CC2CCCCC2)N(C)C(=O)[C@@H]2CCN2C(=O)[C@H](C)NC1=O [Compound 1266] ([NEtLeu]IA[Aze][NMeCha][Sar][hPhe(3-Cl-4-CF3)]P[Ac5c][NMeGly(cPent)][NMeD]-Morpholide; lactam N-11) | 1.2 |
| CC[C@H](C)[C@@H]1NC(=O)[C@H]([C@@H](C)CC)N(C)C(=O)C[C@@H](C)N(C)C(=O)[C@H](C(C)C)N(C)C(=O)C(C)(C)N(C)C(=O)[C@@H]2CCCN2C(=O)[C@H](CCc2ccc(C(F)(F)F)c(Cl)c2)NC(=O)CN(C)C(=O)[C@H](CC2CCCCC2)N(C)C(=O)[C@@H]2CCN2C(=O)[C@H](C)N(C)C1=O [Compound 2159, (5S,8S,11S,15R,18S,23aS,29S,35S,37aS)-8,11-di((S)-sec-butyl)-29-(3-chloro-4-(trifluoromethyl)phenethyl)-35-(cylohexylmethyl)-18-isopropyl-5,6,12,15,16,19,21,21,22,33,36-undecamethyltetracosahydro-2H-azeto[2,1-u]pyrrolo[2,1-i] [1,4,7,10,13,16,19,22,25,28,31]undecaazacyclotetratriacontyne-4,7,10,13,17,20,23,28,31,34,37(14H)-undecone] (cyclo([Aze][NMeCha][Sar][hPhe(3-Cl-4-CF3)]P[NMeAib][NMeV][NMedβ3hAla][NMeI]I[NMeA])) | 3.5 |
| CC[C@H](C)[C@@H]1NC(=O)[C@H](CCC(C)C)N(C)C(=O)C[C@@H](C(=O)N2CCOCC2)N(C)C(=O)[C@H](C2CCCC2)N(C)C(=O)C2(CCCC2)NC(=O)[C@@H]2CCCN2C(=O)[C@H](CCc2ccc(C(F)(F)F)c(Cl)c2)NC(=O)CN(C)C(=O)[C@H](C2CCCC2)N(C)C(=O)[C@@H]2CCN2C(=O)[C@H](C)NC1=O [Compound 1223] ([NMehLeu]IA[Aze][NMeGly(cPent)][Sar][hPhe(3-Cl-4-CF3)]P[Ac5c][NMeGly(cPent)][NMeD]-Morpholide; lactam N-11) | 1.2 |
| CC[C@H](C)[C@@H]1NC(=O)[C@H](C)N(C)C(=O)C[C@@H](C(=O)N2CCCC2)N(C)C(=O)[C@H](C(C)C)N(C)C(=O)C2(CCCC2)NC(=O)[C@H](Cc2ccccc2Cl)N(C)C(=O)[C@H](CCc2ccc(Cl)cc2)NC(=O)CN(C)C(=O)[C@H](CC2CCCCC2)N(C)C(=O)CN(C)C(=O)CN(C)C1=O [Compound 607] ([NMeA]I[Sar][Sar][NMeCha][Sar][hPhe(4-Cl)][NMePhe(2-Cl)][Ac5c][NMeV][NMeD]-Pyrrolidide; lactam N-11) | 220 |
